Results published in patent US20240325544A1, “CATIONIC LIPID FOR COVALENT MODIFICATION OF PEPTIDES” (PharmalN Corporation, priority 2023, published 2024).
Bridge positions count the residues as written; N and C are the ends. Square brackets hold non-standard residues; d marks the D form. Peptide text beside a SMILES is read from it. * marks the point of attachment. Stearoyl = CCCCCCCCCCCCCCCCCC(=O)*; Palmitoyl = CCCCCCCCCCCCCCCC(=O)*; Dab = NCC[C@H](N)C(=O)O; Hexanoyl = CCCCCC(=O)*

What was measured:
Sprague Dawley rats [1] = experiment: Clinically observable adverse effects of cationic alkyl moieties after subcutaneous bolus in rats (Table 1); type: in vivo, rat; details: tested at 3.0, 5.0 or 10 μmol/kg
Protocol: Drug administration and observation: Each rat received a subcutaneous injection of a cationic alkyl modifier (SEQ ID NO: 1-22; listed in Table 1 below) in a buffer of sterile water adjusted to a pH between 4.5-5, with an initial bolus dose of 5.0 μmol/kg and an injection volume of 1.0 mL/kg. The bolus dose level was adjusted based on observations, and animals were monitored closely for lethargy, ataxia, swelling, or discoloration during the first 4 hours post-injection and hourly thereafter. As used herein, “ataxia” means a clinical sign observed as poor muscle control that causes clumsy voluntary movements. It may cause difficulty with mobility, coordination, and eye movements. As used herein, “lethargy” means a clinical sign observed as inability or unwillingness to resume normal activity characterized by exploring and alertness. Lethargic rats are easily observed by displaying little to no activity and/or unwillingness to explore around, half closed eyes, and hunched posture. As used herein, “swelling” means a clinical sign observed as the enlargement or engorgement of body parts with blood or fluid and is associated with visible redness (discoloration). If no swelling occurred, dose level was increased to 10 μmol/kg; if swelling was present, bolus dose level was decreased to 3.0 μmol/kg. A wash-out period of 1 week was allowed between bolus doses, and animals were humanely euthanized through CO2 asphyxiation after final observation.

Sprague Dawley rats [2] = experiment: Dose-range finding of cationic alkyl modified CNP, subcutaneous bolus in rats (Table 2)
Protocol: Animal care and treatment: Male Sprague Dawley rats aged 8 to 10 weeks (Charles River, Hollister, CA) were housed in groups of two (n=3/group) in disposable polypropylene cages with rodent cob bedding at the PharmaIN animal facility. Animals had ad libitum access to food (LabDiet Pico Rodent #5053; Animal Specialties, Woodburn, OR) and water. Temperature (68-74° F.) and humidity (30-60%) were maintained within a controlled range, and a 12-hour light/dark cycle was used. […] Animals were monitored closely during the first 4 hours following injection, then hourly throughout the rest of the day for any signs of swelling or discoloration (dilatory side effect), lethargy (side effect), ataxia (ataxia is used as a marker of toxicity). Rats were allowed a 1-week wash-out period between bolus doses. Following final observations, animals were humanely euthanized through CO2 asphyxiation.

cGMP = experiment: Plasma cGMP after SC bolus of natriuretic peptides in CD-1 mice (pharmacodynamics, Table 3); type: in vivo; details: SC bolus 1.0 mg/kg (≤0.45 μmol/kg), baseline 10 +/−8 pmol/ml, n = 3-5
Protocol: The test articles were formulated or dissolved in sterile water for injection on the same day of administration. […] Blood samples were collected via retro-orbital bleed at 2- and 6-hours post-injection, with two bleedings per animal at two different timepoints. The samples were collected in K2EDTA tubes, processed by centrifugation (2000×g; 15 m 4 eC within 30 minutes after collection), and the resulting plasma samples were stored at −80° C. Biochemical analysis: The plasma concentration of the respective natriuretic peptide was analyzed using commercially available ELISA kits from Phoenix Pharmaceuticals (Burlingame, CA): ANP ELISA (cat #EKE-005-06), BNP ELISA (cat #EKE-011-03), and CNP ELISA (cat #EKE-012-03). […] Plasma cGMP was analyzed using a commercially available kit from Abcam (ab133052, Waltham, MA).

Row | SMILES | Ataxia** in n = 3 (Sprague Dawley rats [1]; ataxia is bolus dose limiting toxicity) | Swelling and/or Discoloration in n = 3 (Sprague Dawley rats [1]; dose at which sign was seen) | Lethargy* in n = 3 (Sprague Dawley rats [1]; lethargy is considered maximum tolerated bolus dose) | Ataxia** in n = 3 (Sprague Dawley rats [2]; up to 10 mg/kg) | Lethargy* in n = 3 (Sprague Dawley rats [2]; up to 10 mg/kg) | Swelling and/or Discoloration in n = 3 (Sprague Dawley rats [2]; up to 10 mg/kg) | Ataxia** in n = 3 (Sprague Dawley rats [2]; value in parentheses) | Lethargy* in n = 3 (Sprague Dawley rats [2]; value in parentheses) | Swelling and/or Discoloration in n = 3 (Sprague Dawley rats [2]; value in parentheses) | Plasma concentration of cGMP, 2 hr (cGMP; 2 hr) | Plasma concentration of cGMP, 6 hr (cGMP; 6 hr)
1 | CCCCCCCCCCCCCCCC(=O)NCCOCCOCC(=O)NCCOCCOCC(=O)NCCOCCOCC(=O)N[C@@H](CCCCN)C(=O)N[C@@H](CCCCN)C(=O)O [SEQ ID NO: 7, CH3(CH2)14(C═O)-Aeea-Aeea-Aeea-KK] | >5 µmol/kg | ≥3 µmol/kg | ≥5 µmol/kg | – | – | – | – | – | – | – | –
2 | CCCCCCCCCCCCCCCCCC(=O)N[C@@H](CCCCN)C(=O)N[C@@H](CCCCN)C(=O)N[C@@H](CCCCN)C(=O)N[C@@H](CCCCN)C(=O)NCC(=O)NCC(=O)NCC(=O)NCC(=O)N[C@@H](CC(C)C)C(=O)N[C@@H](CO)C(=O)N[C@@H](CCCCN)C(=O)NCC(=O)N[C@H]1CSSC[C@@H](C(=O)O)NC(=O)CNC(=O)[C@H](CC(C)C)NC(=O)CNC(=O)[C@H](CO)NC(=O)[C@H](CCC(N)=O)NC(=O)[C@H](CO)NC(=O)CNC(=O)[C@H]([C@@H](C)CC)NC(=O)[C@H](CCCNC(=N)N)NC(=O)[C@H](CC(=O)O)NC(=O)[C@H](CC(C)C)NC(=O)[C@H](CCCCN)NC(=O)[C@H](CC(C)C)NC(=O)CNC(=O)[C@H](Cc2ccccc2)NC1=O [SEQ ID NO: 23] (Stearoyl-KKKKGGGGLSKGCFGLKLDRIGSQSGLGC-OH; disulfide 13-29; C-terminus assumed) | – | – | – | ≥3 mg/kg | ≥1 mg/kg | ≥1 mg/kg | (0.94) μmol/kg | (0.31) μmol/kg | (0.31) μmol/kg | – | –
3 | CCCCCCCCCCCCCCCC(=O)N[C@@H](CCCCN)C(=O)N[C@@H](CCCCN)C(=O)NCC(=O)NCC(=O)NCC(=O)N[C@@H](CCCCN)C(=O)N[C@@H](CCCCN)C(=O)NCC(=O)N[C@@H](CC(C)C)C(=O)N[C@@H](CO)C(=O)N[C@@H](CCCCN)C(=O)NCC(=O)N[C@H]1CSSC[C@@H](C(=O)O)NC(=O)CNC(=O)[C@H](CC(C)C)NC(=O)CNC(=O)[C@H](CO)NC(=O)[C@H](CCC(N)=O)NC(=O)[C@H](CO)NC(=O)CNC(=O)[C@H]([C@@H](C)CC)NC(=O)[C@H](CCCNC(=N)N)NC(=O)[C@H](CC(=O)O)NC(=O)[C@H](CC(C)C)NC(=O)[C@H](CCCCN)NC(=O)[C@H](CC(C)C)NC(=O)CNC(=O)[C@H](Cc2ccccc2)NC1=O [SEQ ID NO: 24] (Palmitoyl-KKGGGKKGLSKGCFGLKLDRIGSQSGLGC-OH; disulfide 13-29; C-terminus assumed) | – | – | – | ≥5 mg/kg | ≥5 mg/kg | ≥5 mg/kg | (1.6) μmol/kg | (1.6) μmol/kg | (1.6) μmol/kg | – | –
4 | CCCCCCCCCCCCCCCC(=O)NCC(=O)NCC(=O)NCC(=O)N[C@@H](CCCCN)C(=O)N[C@@H](CCCCN)C(=O)N[C@@H](CCCCN)C(=O)N[C@@H](CCCCN)C(=O)NCC(=O)N[C@@H](CC(C)C)C(=O)N[C@@H](CO)C(=O)N[C@@H](CCCCN)C(=O)NCC(=O)N[C@H]1CSSC[C@@H](C(=O)O)NC(=O)CNC(=O)[C@H](CC(C)C)NC(=O)CNC(=O)[C@H](CO)NC(=O)[C@H](CCC(N)=O)NC(=O)[C@H](CO)NC(=O)CNC(=O)[C@H]([C@@H](C)CC)NC(=O)[C@H](CCCNC(=N)N)NC(=O)[C@H](CC(=O)O)NC(=O)[C@H](CC(C)C)NC(=O)[C@H](CCCCN)NC(=O)[C@H](CC(C)C)NC(=O)CNC(=O)[C@H](Cc2ccccc2)NC1=O [SEQ ID NO: 25] (Palmitoyl-GGGKKKKGLSKGCFGLKLDRIGSQSGLGC-OH; disulfide 13-29; C-terminus assumed) | – | – | – | ≥5 mg/kg | ≥5 mg/kg | ≥5 mg/kg | (1.6) μmol/kg | (1.6) μmol/kg | (1.6) μmol/kg | – | –
5 | CCCCCCCCCCCCCCCC(=O)N[C@H](CCCCN)C(=O)N[C@H](CCCCN)C(=O)N[C@H](CCCCN)C(=O)N[C@H](CCCCN)C(=O)NCC(=O)NCC(=O)NCC(=O)NCC(=O)N[C@@H](CC(C)C)C(=O)N[C@@H](CO)C(=O)N[C@@H](CCCCN)C(=O)NCC(=O)N[C@H]1CSSC[C@@H](C(=O)O)NC(=O)CNC(=O)[C@H](CC(C)C)NC(=O)CNC(=O)[C@H](CO)NC(=O)[C@H](CCC(N)=O)NC(=O)[C@H](CO)NC(=O)CNC(=O)[C@H]([C@@H](C)CC)NC(=O)[C@H](CCCNC(=N)N)NC(=O)[C@H](CC(=O)O)NC(=O)[C@H](CC(C)C)NC(=O)[C@H](CCCCN)NC(=O)[C@H](CC(C)C)NC(=O)CNC(=O)[C@H](Cc2ccccc2)NC1=O [SEQ ID NO: 26] (Palmitoyl-[dK][dK][dK][dK]GGGGLSKGCFGLKLDRIGSQSGLGC-OH; disulfide 13-29; C-terminus assumed) | – | – | – | ≥5 mg/kg | ≥5 mg/kg | ≥5 mg/kg | (1.6) μmol/kg | (1.6) μmol/kg | (1.6) μmol/kg | – | –
6 | CCCCCC(=O)N[C@@H](CCCCN)C(=O)N[C@@H](CCCCN)C(=O)NCC(=O)NCC(=O)NCC(=O)N[C@@H](CCCNC(=N)N)C(=O)N[C@@H](CCCNC(=N)N)C(=O)NCC(=O)N[C@@H](CC(C)C)C(=O)N[C@@H](CO)C(=O)N[C@@H](CCCCN)C(=O)NCC(=O)N[C@H]1CSSC[C@@H](C(=O)O)NC(=O)CNC(=O)[C@H](CC(C)C)NC(=O)CNC(=O)[C@H](CO)NC(=O)[C@H](CCC(N)=O)NC(=O)[C@H](CO)NC(=O)CNC(=O)[C@H]([C@@H](C)CC)NC(=O)[C@H](CCCNC(=N)N)NC(=O)[C@H](CC(=O)O)NC(=O)[C@H](CC(C)C)NC(=O)[C@H](CCCCN)NC(=O)[C@H](CC(C)C)NC(=O)CNC(=O)[C@H](Cc2ccccc2)NC1=O [SEQ ID NO: 27] (Hexanoyl-KKGGGRRGLSKGCFGLKLDRIGSQSGLGC-OH; disulfide 13-29; C-terminus assumed) | – | – | – | ≥5 mg/kg | ≥5 mg/kg | ≥5 mg/kg | (1.6) μmol/kg | (1.6) μmol/kg | (1.6) μmol/kg | – | –
7 | CCCCCC(=O)N[C@@H](CCCCN)C(=O)N[C@@H](CCCCN)C(=O)NCC(=O)NCC(=O)NCC(=O)N[C@@H](CCN)C(=O)N[C@@H](CCN)C(=O)NCC(=O)N[C@@H](CC(C)C)C(=O)N[C@@H](CO)C(=O)N[C@@H](CCCCN)C(=O)NCC(=O)N[C@H]1CSSC[C@@H](C(=O)O)NC(=O)CNC(=O)[C@H](CC(C)C)NC(=O)CNC(=O)[C@H](CO)NC(=O)[C@H](CCC(N)=O)NC(=O)[C@H](CO)NC(=O)CNC(=O)[C@H]([C@@H](C)CC)NC(=O)[C@H](CCCNC(=N)N)NC(=O)[C@H](CC(=O)O)NC(=O)[C@H](CC(C)C)NC(=O)[C@H](CCCCN)NC(=O)[C@H](CC(C)C)NC(=O)CNC(=O)[C@H](Cc2ccccc2)NC1=O [SEQ ID NO: 28] (Hexanoyl-KKGGG[Dab][Dab]GLSKGCFGLKLDRIGSQSGLGC-OH; disulfide 13-29; C-terminus assumed) | – | – | – | ≥5 mg/kg | ≥5 mg/kg | ≥5 mg/kg | (1.6) μmol/kg | (1.6) μmol/kg | (1.6) μmol/kg | – | –
8 | CC[C@H](C)[C@@H]1NC(=O)[C@H](CCCNC(=N)N)NC(=O)[C@H](CC(=O)O)NC(=O)[C@H](CCSC)NC(=O)[C@H](CCCNC(=N)N)NC(=O)CNC(=O)CNC(=O)[C@H](Cc2ccccc2)NC(=O)[C@@H](NC(=O)[C@H](CO)NC(=O)[C@H](CO)NC(=O)[C@H](CCCNC(=N)N)NC(=O)[C@H](CCCNC(=N)N)NC(=O)[C@H](CC(C)C)NC(=O)[C@@H](N)CO)CSSC[C@@H](C(=O)N[C@@H](CC(N)=O)C(=O)N[C@@H](CO)C(=O)N[C@@H](Cc2ccccc2)C(=O)N[C@@H](CCCNC(=N)N)C(=O)N[C@@H](Cc2ccc(O)cc2)C(=O)O)NC(=O)CNC(=O)[C@H](CC(C)C)NC(=O)CNC(=O)[C@H](CO)NC(=O)[C@H](CCC(N)=O)NC(=O)[C@H](C)NC(=O)CNC1=O [SEQ ID NO: 44, reference compound] | – | – | – | – | – | – | – | – | – | 26.23 pmol/mL | 14.08 pmol/mL
